Results on 2 molecules are retold here after patent publication US10993935B2, “Compositions and methods for treatment of lung infections” (priority 2018, dated 2021).

Usually MIC50 stands for an inhibitory concentration at the 50% level, which refers to growth in some studies and to a panel of isolates in others. A word on the MIC90: it is an inhibitory concentration at the 90% level, which refers to growth in some studies and to a panel of isolates in others.

≈ marks a conversion by molar mass, not a printed value. Where two headings read alike, the source gives them in different places. Some results are limits rather than exact numbers.

Series [1] is described as follows: Particle (droplet) size analysis of aerosol drugs. The class given is physicochemical. The settings on record: 60 mg/mL; TOB in 0.225% saline, RFX in 100% DMSO; nebulizer aerosol, Malvern Spraytec. The protocol:
Particle Size Analysis of Aerosol Drugs. Droplet size analysis of drugs used for aerosol therapy was conducted by Spray Analytics (Lincolnshire, Ill.). Samples of TOB in 0.225% saline and RFX in 100% DMSO at concentrations of 60 mg/mL for both were prepared and submitted along with nebulizer unit used for animal experiments. A Malvern Spraytec was used for analysis with the tested product sprayed horizontally at less than 5 cm from the detector beam. The samples were measured in triplicates for 20-30 seconds of stable operation of the nebulizer. Refractive index and absorption values used were that of DMSO for RFX and water for TOB.
The potential adverse effects of using DMSO were first assessed by nebulizing DMSO alone to a group of C57BL/6 mice (n=8). This type of mice was used due to their natural resistance against infection based on our previous studies. […] Next, the delivery of both RFX and TOB via nebulization was optimized. […] To determine the dosage of each drug received by the mice, the lungs were homogenized and drug concentrations of TOB and RFX were determined via ELISA and HPLC, respectively. […] The droplet size for both TOB and RFX were determined to be identical with the average droplet size for TOB and RFX being 5.07 μm and 5.02 μm, respectively.

Series [2] relates to P. aeruginosa PAO581 (PAO1mucA25). Description: NIH drug library screen for inhibition of growth, mucoidy and PalgD-lacZ colour. It is filed as cell-based, Pseudomonas aeruginosa.
A further series deals with P. aeruginosa strains. The series is described as follows: MIC and synergy testing (checkerboard/isobologram) of RFX and TOB. The class given is cell-based, Pseudomonas aeruginosa. The settings on record: strain CF003, NM.
The nature of series [3]: Adverse effects after nebulization in mice. The class given is in vivo, C57BL/6 mice. The settings on record: mouse, in vivo. How it is done:
Drug Nebulization. C57BL/6 mice (n=8) were first exposed to 5 mL DMSO for 10 minutes to determine any adverse effects that may occur from using DMSO. Mice (n=16) were then exposed to TOB in 0.225% saline or RFX in DMSO via nebulization until the 5 mL drug mixture was depleted—typically 10-15 minutes. Nebulization was conducted using the pressure-based nebulizer and chamber purchased from Kent Scientific (Torrington, Conn.). TOB was nebulized at concentrations of 100 mg (n=4) or 400 mg (n=4) in 5 mL of 0.225% saline. RFX was nebulized at concentrations of 100 mg (n=4) or 400 mg (n=4) in 5 ml of 100% dimethyl sulfoxide. Mice were sacrificed immediately after nebulization via CO2 chamber. Lungs were then collected and homogenized. TOB concentrations were measured using ELISA. RFX concentrations were measured via HPLC.
The potential adverse effects of using DMSO were first assessed by nebulizing DMSO alone to a group of C57BL/6 mice (n=8). This type of mice was used due to their natural resistance against infection based on our previous studies. […] To determine the dosage of each drug received by the mice, the lungs were homogenized and drug concentrations of TOB and RFX were determined via ELISA and HPLC, respectively. […] The droplet size for both TOB and RFX were determined to be identical with the average droplet size for TOB and RFX being 5.07 μm and 5.02 μm, respectively. […]

The next series concerns Acinetobacter baumannii. The series is described as follows: RFX MIC testing against MDR clinical isolates. The class given is cell-based. The protocol: (§1) Minimum Inhibitory Concentration Testing. MIC testing was performed as previously described. Briefly, overnight culture of bacteria was diluted in 1:100 of a 0.5 McFarland standard as inoculum. The same number of cells was grown in LB broth containing serial, two-fold dilutions of rifaximin (RFX) or tobramycin (TOB). Growth was measured via optical density (OD) at 600 nm after 24 h incubation at 37° C. Concentrations of antibiotic required for inhibition of 50% and 90% of strains were determined.
(§2) Because RFX was not a traditional treatment for P. aeruginosa infections, it was first tested whether RFX was effective in vitro against P. aeruginosa and other bacterial pathogens seen in CF. Since RFX is not used for treatment of ventilator-associated pneumonia (VAP), it was thought the isolates of tracheal aspirates from VAP patients in the ICU may be sensitive to RFX. To determine the susceptibility to RFX, resistant isolates from the Cabell Huntington Hospital were chosen to measure the minimum inhibitory concentrations (MIC) for RFX (Table 3).
(§3) MIC50 and MIC90 are the concentrations of RFX required for the growth inhibition of 50% and 90% of strains, respectively.

The next series deals with Burkholderia cepacia. Description: RFX MIC testing against MDR clinical isolates. It is filed as cell-based. The protocol:
as §1, §2, §3

Series [4] concerns Stenotrophomonas maltophilia. The series is described as follows: RFX MIC testing against MDR clinical isolates. It is filed as cell-based. How it is done: as §1, §2, §3
Another series has as its system Pseudomonas aeruginosa. The series is described as follows: RFX MIC testing against MDR clinical isolates. The class given is cell-based. The protocol:
as §1, §2, §3

The next series deals with Staphylococcus aureus. Description: RFX MIC testing against MDR clinical isolates. The class given is cell-based. How it is done:
as §1, §2, §3

[5] abbreviates: Stenotrophomonas maltophilia, 1 strain.

Molecule `NC[C@H]1O[C@H](O[C@H]2[C@H](O)[C@@H](O[C@H]3O[C@H](CO)[C@@H](O)[C@H](N)[C@H]3O)[C@H](N)C[C@@H]2N)[C@H](N)C[C@@H]1O` [TOB, tobramycin] displayed an average droplet size in [1] of 5.07 μm.
Consider `CO[C@H]1/C=C/O[C@@]2(C)Oc3c(C)c(O)c4c(O)c(c5c(nc6cc(C)ccn65)c4c3C2=O)NC(=O)/C(C)=C\C=C\[C@H](C)[C@H](O)[C@@H](C)[C@@H](O)[C@@H](C)[C@H](OC(C)=O)[C@@H]1C` [RFX, rifaximin], for which, in series [2] (drug at 2 μM, PAO581 on PIA), the “Growth 2 μM” value is reported as “Reduced”. In series [2] (drug at 2 μM, PAO581 with pLP170-PalgD-lacZ on PIA + X-gal), the “Mucoidy 2 μM” value is on record as “Reduced”. The “Color 2 μM” value in series [2] (drug at 2 μM, X-gal colour of PalgD-lacZ reporter, 'Light' wraps to 'Light Blue') is “Clear”. For the same molecule, in series [2] (drug at 10 μM, PAO581 on PIA), the “Growth 10 μM” value is given as “Inhibited”. Further, in [2] (drug at 50 μM, PAO581 on PIA), the “Growth 50 μM” value was “Inhibited”. The “FIC RFX” value with P. aeruginosa strains stood at 0.25. In addition, in the series with P. aeruginosa strains (in combination with TOB), the “MIC RFX in Combination” value is 1. Moreover, in series [1], the average droplet size turned out to be 5.02 μm. In addition, the adverse effects entry in series [3] was “no adverse effects”. The MIC50 with Acinetobacter baumannii (Acinetobacter baumannii, 9 strains, concentration inhibiting growth of 50% of strains) is below 0.5 µg/mL; in the series with Burkholderia cepacia (Burkholderia cepacia, 4 strains, concentration inhibiting growth of 50% of strains) it was 16 µg/mL (≈ 20.4 µM); in series [4] (setting [5]) it was 16 µg/mL (≈ 20.4 µM); against Pseudomonas aeruginosa (26 MDR clinical isolates, concentration inhibiting growth of 50% of strains), 8 µg/mL (≈ 10.2 µM); with Pseudomonas aeruginosa (Pseudomonas aeruginosa, MDR P. aeruginosa, read-out: MIC50), 8 µg/mL (≈ 10.2 µM); in the series on Staphylococcus aureus (22 strains, concentration inhibiting growth of 50% of strains) it was 2 µg/mL (≈ 2.54 µM). The MIC50 in the series on Staphylococcus aureus (MDR S. aureus including MRSA) is 2 µg/mL (≈ 2.54 µM). For the same molecule, the MIC90 in the series on Acinetobacter baumannii (Acinetobacter baumannii, 9 strains, concentration inhibiting growth of 90% of strains) is below 0.5 µg/mL; in the series with Burkholderia cepacia (Burkholderia cepacia, 4 strains, concentration inhibiting growth of 90% of strains), 32 µg/mL (≈ 40.7 µM); in [4] (setting [5]), 16 µg/mL (≈ 20.4 µM); against Pseudomonas aeruginosa (26 MDR clinical isolates, concentration inhibiting growth of 90% of strains), 16 µg/mL (≈ 20.4 µM); in the series on Pseudomonas aeruginosa (Pseudomonas aeruginosa, MDR P. aeruginosa, read-out: MIC90), 16 µg/mL (≈ 20.4 µM); against Staphylococcus aureus (22 strains, concentration inhibiting growth of 90% of strains), 16 µg/mL (≈ 20.4 µM). Moreover, in the series on Staphylococcus aureus (MDR S. aureus including MRSA), the MIC90 worked out at 16 µg/mL (≈ 20.4 µM). Also, the “growth of clinical isolates” value with Acinetobacter baumannii (clinical isolates, in words) is listed as “effectively inhibit the growth”; in the series on Burkholderia cepacia (clinical isolates, in words), “effectively inhibit the growth”; in series [4] (clinical isolates, in words) it was “effectively inhibit the growth”.
